Structures can show the parent of a compound that is named as a salt.

In this assay the target is human Mnk2a (Homo sapiens (Human), UniProt Q9HBH9). In words: Mnk2a in vitro kinase assay (indirect competitive fluorescence polarization). The class given is biochemical. The note with it: pre-activated GST-Mnk2a 2.5 nM, 20 μM ATP, 30 μM substrate peptide; read-out: MNK2 IC50. As for the experimental part: Inhibitory potency of compounds against Mnk1, Mnk2a and other kinases was assessed with assays based on a format known to those skilled in the art as the indirect (competitive) fluorescence polarization. The assay detection system comprises a small fluorophore-labeled phospho-peptide (termed ligand) bound to a phospho-specific antibody. The product generated by the kinase reaction competes with the ligand for antibody binding. Based on the larger molecular volume of the bound ligand, which results in a lower rotation rate in solution, its emitted light has a higher degree of polarization than the one from the free ligand.
Sequence of human Mnk2a (Q9HBH9 whole entry): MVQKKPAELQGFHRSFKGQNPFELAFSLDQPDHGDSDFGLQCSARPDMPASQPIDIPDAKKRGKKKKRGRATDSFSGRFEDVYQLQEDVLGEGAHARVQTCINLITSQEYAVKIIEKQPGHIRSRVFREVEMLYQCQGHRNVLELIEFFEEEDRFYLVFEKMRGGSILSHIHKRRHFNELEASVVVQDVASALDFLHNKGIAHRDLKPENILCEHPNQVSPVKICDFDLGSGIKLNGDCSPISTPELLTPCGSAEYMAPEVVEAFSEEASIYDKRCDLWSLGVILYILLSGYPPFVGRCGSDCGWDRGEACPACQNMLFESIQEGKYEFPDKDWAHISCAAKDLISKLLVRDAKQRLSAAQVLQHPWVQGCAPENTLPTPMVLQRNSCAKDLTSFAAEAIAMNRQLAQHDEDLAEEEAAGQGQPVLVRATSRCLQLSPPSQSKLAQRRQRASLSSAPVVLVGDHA
In brief, the open reading frames of human Mnk1 and Mnk2a were amplified from cDNA using the forward/reverse primer pairs
(utilized restriction sites underlined), respectively, and cloned into the BamHI and SalI sites of the vector pGEX-4T1 (Amersham, Sweden, cat. no. 27-4580-01). These constructs allow prokaryotic expression of Mnk1 or Mnk2a as fusion protein with a N-terminal glutathione S-transferase (GST) tag, referred to as GST-Mnk1 or GST-Mnk2a. The following expression and purification procedure was identical for GST-Mnk1 and GST-Mnk2a, referring in general to GST-Mnk, when not distinguishing between the two isoforms. Expression of GST-Mnk was in E. coli BL21 (Merck Biosciences, Germany, cat. no. 69449). Cells were grown in LB-Bouillon (Merck, Germany, cat. no. 1.10285) supplemented with 100 μg/ml ampicillin (Sigma, Germany, cat. no. A9518) at 37° C. […] Cells harvested by centrifugation were resuspended in 10 ml lysis buffer (50 mM tris(hydroxymethyl)aminomethane hydrochloride (Tris/HCl, Sigma, Germany, cat. no. T5941) pH 7.5, 300 mM sodium chloride (NaCl, Sigma, Germany, cat. no. S7653), 5% (w/v) glycerol (Sigma, Germany, cat. no. G5516), 3 mM DTT dithiotreitol (DTT, Sigma, Germany, cat. no. D9779)) per gram wet weight cell pellet. Lysates were prepared by disruption of cells with a sonifier and subsequent clearing by centrifugation at 38000 g for 45 min at 4° C.
The lysate was applied to a GSTPrep FF 16/10 column (Amersham, Sweden, cat. no. 17-5234-01) equilibrated with lysis buffer. Removal of unbound material was with 3 column volumes (CV) lysis buffer. Elution was with 2 CV of elution buffer (50 mM Tris/HCl pH 7.5, 300 mM NaCl, 5% (w/v) glycerol, 20 mM glutathione (Sigma, Germany, cat. no. G4251)). Peak fractions were pooled and the protein transferred into storage buffer (50 mM Tris/HCl pH 7.5, 200 mM NaCl, 0.1 mM ethylene glycol[…] bis(2-aminoethylether)-N,N,N′,N′-tetraacetic acid (EGTA, Aldrich, Germany, cat. no. 23, 453-2), 1 mM DTT, 10% (w/v) glycerol, 0.5 M sucrose (Sigma, Germany, cat. no. S0389) by gel filtration on a PD10 desalting column (Amersham, Sweden, cat. no. 17-0851-01). Aliquots were shock frozen in liquid nitrogen and stored at −80° C.
Activation of Mnk1 and Mnk2a was at a concentration of 2.5 μM of either purified GST-Mnk1 or GST-Mnk2a by incubation with 150 nM pre-activated NHis-ERK2 (see ERK2 assay for preparation) and 50 μM adenosine triphosphate (ATP, Sigma, cat. no. A2699) in a buffer comprising 20 mM N-(2-hydroxyethyl)piperazine-N′-(2-ethanesulfonic acid) (HEPES, Fluka, Germany, cat. no 54459)/potassium hydroxide (KOH, Roth, Germany, cat. no 6751.1) pH 7.4, 10 mM magnesium chloride (MgCl2, Sigma, Germany, cat. no. M2670), 0.25 mM DTT, 0.05% (w/v) polyoxyethylene 20 stearylether (Brij 78, Sigma, Germany, cat. no. P4019) (HMDB buffer) for 45 min at 30° C. After the incubation, the preparation was aliquoted into single-use samples, shock frozen in liquid nitrogen, stored at −80° C. and utilized for Mnk1 or Mnk2a kinase assays as detailed below.
The serine residue phosphorylated by Mnk kinases is underlined.
Turning to `CCOCC(COCC)Oc1cc(F)ccc1Nc1ncnc2sc(C(N)=O)c(C)c12` [Compound 22-3, 4-(2-(1,3-Diethoxypropan-2-yloxy)-4-fluorophenylamino)-5-methyl-thieno[2,3-d]pyrimidine-6-carboxamide], the IC50 (usually the concentration needed to halve the response being measured) stood at 296 nM.

As for `Cc1c(C(=O)NCCO)sc2ncnc(Nc3cccnc3OC(C)C)c12` [Compound 36-12, N-(2-Hydroxyethyl)-4-(2-isopropoxypyridin-3ylamino)-5-methylthieno[2,3-d]pyrimidine-6-carboxamide], the IC50 came to 31 nM. The value for `Cc1c(C(=O)O)sc2ncnc(Nc3ccc(F)cc3OC(CF)CF)c12` [Compound 23-2, 4-(2-(1,3-Difluoropropan-2-yloxy)-4-fluorophenylamino)-5-methyl-thieno[2,3-d]pyrimidine-6-carboxylic acid] was 6 nM. Then `Cc1c(C(N)=O)sc2ncnc(Nc3ccc(F)cc3O[C@@H](C)CN)c12` (racemic) [Compound 6-2, (R) and (S)-4-(2-(1-aminopropan-2-yloxy)-4-fluorophenylamino)-5-methylthieno[2,3-d]pyrimidine-6-carboxamide trifluoroacetate], with 90 nM; and `COCC(C)Oc1cc(F)ccc1Nc1ncnc2sc(C(=O)NCCCN(C)C)c(C)c12` (stereo not shown) [Compound 32-35], with 35 nM; and `Cc1c(C(=O)NCCCN(C)C)sc2ncnc(Nc3ccc(F)cc3OCC3CCOCC3)c12` [Compound 26-3], with 790 nM. The value for `COC(=O)c1sc2ncnc(Nc3cccnc3OC(C)CCN)c2c1C` (stereo not shown) [Compound 15-2, Methyl 4-(2-((4-aminobutan-2yloxy)pyridin-3ylamino)-5-methyl-thieno[2,3-d]pyrimidine-6-carboxylate trifluoroacetate] was 174 nM; that for `Cc1c(C(=O)NCC#CCN(C)C)sc2ncnc(Nc3ccc(C#N)cc3OC(CF)CF)c12` [Compound 52, 4-(4-Cyano-2-(2-fluoro-1-fluoromethyl-ethoxy)-phenylamino]-5-methyl-thieno[2,3-d]pyrimidine-6-carboxylic acid (4-dimethylamino-but-2-ynyl)-amide] was 25 nM. Turning to `Cc1c(C(=O)NCCO)sc2ncnc(Nc3ccc(F)cc3OC(C)CN)c12` (stereo not shown) [Compound 2-3, 4-(2-(1-Amino-propan-2-yloxy)-4-fluorophenylamino)-N-(2-hydroxy-ethyl)-5-methyl-thieno[2,3-d]-pyrimidine-6-carboxamide], the IC50 was found to be 50 nM. Then `Cc1c(C(=O)NCCC2CCN(C)C2)sc2ncnc(Nc3ccc(F)cc3OC(C)CF)c12` (stereo not shown) [Compound 32-43], with 12 nM; and `Cc1c(C(N)=O)sc2ncnc(Nc3ccc(F)cc3OC(CF)CF)c12` [Compound 23-3, 4-(2-(1,3-Difluoropropan-2-yloxy)-4-fluorophenylamino)-5-methyl-thieno[2,3-d]pyrimidine-6-carboxamide], with 4 nM; and `Cc1c(C(=O)NCCCN(C)C)sc2ncnc(Nc3ccc(F)cc3OC(C)CC(C)(C)O)c12` (stereo not shown) [Compound 20-3, N-(3-(Dimethylamino)propyl)-4-(4-fluoro-2-(4-hydroxy-4-methylpentan-2-yloxy)phenylamino)-5-methyl-thieno[2,3-d]pyrimidine-6-carboxamide trifluoroacetate], with 59 nM.

On to `Cc1c(C(=O)NCCCN(C)C)sc2ncnc(Nc3ccc(F)cc3OC(CO)CO)c12` [Compound 32-31], for which the IC50 is 146 nM. The value for `COC(=O)c1sc2ncnc(Nc3ccc(F)cc3OC(CN)CNC(C)=O)c2c1C` (stereo not shown) [Compound 19-1, Methyl 4-(2-(1-acetamido-3-aminopropan-2-yloxy)-4-fluorophenylamino)-5-methylthieno[2,3-d]pyrimidine-6-carboxylate trifluoroacetate] was 1530 nM. The value for `Cc1c(C(=O)NCCO)sc2ncnc(Nc3ccc(F)cc3OCC(F)F)c12` [Compound 32-18] was 30 nM; that for `Cc1c(C(=O)NCC#CCN(C)C)sc2ncnc(Nc3cccnc3OC(C)C(F)(F)F)c12` (stereo not shown) [Compound 21-7, 5-Methyl-4-[2-(2,2,2-trifluoro-1-methyl-ethoxy)-pyridin-3-ylamino]-thieno[2,3-d]pyrimidine-6-carboxylic acid (4-dimethylamino-but-2-ynyl)-amide] was 24 nM.

Consider `Cc1c(C(N)=O)sc2ncnc(Nc3cccnc3OC(C)C)c12` [Compound 35, 4-(2-Isopropoxypyridin-3-ylamino)-5-methyl-thieno[2,3-d]pyrimidine-6-carboxamide], for which the IC50 stood at 12 nM. As for `COC(=O)c1sc2ncnc(Nc3ccc(F)cc3OCCN)c2c1C` [Compound 9-2, Methyl 4-(2-(2-aminoethoxy)-4-fluorophenylamino)-5-methyl-thieno[2,3-d]pyrimidine-6-carboxylate hydrochloride], the IC50 stood at 577 nM. Then `Cc1c(C(=O)NCCCN(C)C)sc2ncnc(Nc3ccc(F)cc3OC(C)CN)c12` (stereo not shown) [Compound 2-2, 4-(2-(1-Amino-propan-2-yloxy)-4-fluorophenylamino)-N-(3-(diemthyl-amino)propyl)-5-methylthieno[2,3-d]pyrimidine-6-carboxamide bis(trifloroacetate)], with 41 nM. Turning to `CCNC(=O)c1sc2ncnc(Nc3cccnc3OC(C)C)c2c1C` [Compound 36-3], the IC50 came out at 26 nM. Then `Cc1c(C(N)=O)sc2ncnc(Nc3cccnc3OCC3(CC#N)CC3)c12` [Compound 33-4], with 16 nM.

On to `Cc1c(C(=O)NCCN(C)C)sc2ncnc(Nc3ccc(F)cc3OC(CF)CF)c12` [Compound 23-7, 4-(2-(1,3-difluoro-propan-2-yloxy)-4-fluorophenylamino)-N-(2-(dimethylamino)-ethyl)-5-methylthieno-[2,3-d]-pyrimidine-6-carboxamide], for which the IC50 was 17 nM. The value for `CNC(=O)c1sc2ncnc(Nc3ccc(F)cc3OC(C)CNC(=O)OC(C)(C)C)c2c1C` (stereo not shown) [Compound 1-3, tert-Butyl 2-(5-fluoro-2-(5-methyl-6-(methylcarbamoyl)thieno[2,3-d]pyrimidin-4-ylamino)phenoxy)propylcarbamate] was 342 nM; that for `COCC(C)Oc1ncccc1Nc1ncnc2sc(C(=O)NCCO)c(C)c12` (stereo not shown) [Compound 28-4, N-(2-hydroxy-ethyl)-4-(2-(1-methoxy-propan-2-yloxy)pyridin-3-ylamino)-5-methylthieno-[2,3-d]-pyrimidine-6-carbox-amide] was 78 nM; that for `Cc1c(C(N)=O)sc2ncnc(Nc3ccc(F)cc3OCC(F)F)c12` [Compound 32-17] was 16 nM. The value for `Cc1c(C(=O)NC2CCN(C)CC2)sc2ncnc(Nc3ccc(F)cc3OC(C)CF)c12` (stereo not shown) [Compound 32-45] was 11 nM; that for `Cc1c(C(=O)NCCCN(C)C)sc2ncnc(Nc3ccc(F)cc3OCC(C)F)c12` (stereo not shown) [Compound 32-39] was 35 nM; that for `Cc1c(C(=O)NCCO)sc2ncnc(Nc3ccc(F)cc3OC(C)C(=O)NCCCN)c12` (stereo not shown) [Compound 57, 4-{2-[1-(3-Amino-propylcarbamoyl)-ethoxy]-4-fluoro-phenylamino}-5-methyl-thieno[2,3-d]pyrimidine-6-carboxylic acid (2-hydroxy-ethyl)-amide] was 110 nM.
